{
  "source": "paper PMC9203742",
  "about": "(Nature Communications, 2022)",
  "key": {"[1]": {"target": "T1, mGlu1 A59H/A265H mutant (Rattus norvegicus, UniProt P23385, A265H/A59H)", "T1 construct": "expressed in transfected cells; host or cells: HEK293", "T1 sequence (P23385 19-1199 A59H/A265H)": "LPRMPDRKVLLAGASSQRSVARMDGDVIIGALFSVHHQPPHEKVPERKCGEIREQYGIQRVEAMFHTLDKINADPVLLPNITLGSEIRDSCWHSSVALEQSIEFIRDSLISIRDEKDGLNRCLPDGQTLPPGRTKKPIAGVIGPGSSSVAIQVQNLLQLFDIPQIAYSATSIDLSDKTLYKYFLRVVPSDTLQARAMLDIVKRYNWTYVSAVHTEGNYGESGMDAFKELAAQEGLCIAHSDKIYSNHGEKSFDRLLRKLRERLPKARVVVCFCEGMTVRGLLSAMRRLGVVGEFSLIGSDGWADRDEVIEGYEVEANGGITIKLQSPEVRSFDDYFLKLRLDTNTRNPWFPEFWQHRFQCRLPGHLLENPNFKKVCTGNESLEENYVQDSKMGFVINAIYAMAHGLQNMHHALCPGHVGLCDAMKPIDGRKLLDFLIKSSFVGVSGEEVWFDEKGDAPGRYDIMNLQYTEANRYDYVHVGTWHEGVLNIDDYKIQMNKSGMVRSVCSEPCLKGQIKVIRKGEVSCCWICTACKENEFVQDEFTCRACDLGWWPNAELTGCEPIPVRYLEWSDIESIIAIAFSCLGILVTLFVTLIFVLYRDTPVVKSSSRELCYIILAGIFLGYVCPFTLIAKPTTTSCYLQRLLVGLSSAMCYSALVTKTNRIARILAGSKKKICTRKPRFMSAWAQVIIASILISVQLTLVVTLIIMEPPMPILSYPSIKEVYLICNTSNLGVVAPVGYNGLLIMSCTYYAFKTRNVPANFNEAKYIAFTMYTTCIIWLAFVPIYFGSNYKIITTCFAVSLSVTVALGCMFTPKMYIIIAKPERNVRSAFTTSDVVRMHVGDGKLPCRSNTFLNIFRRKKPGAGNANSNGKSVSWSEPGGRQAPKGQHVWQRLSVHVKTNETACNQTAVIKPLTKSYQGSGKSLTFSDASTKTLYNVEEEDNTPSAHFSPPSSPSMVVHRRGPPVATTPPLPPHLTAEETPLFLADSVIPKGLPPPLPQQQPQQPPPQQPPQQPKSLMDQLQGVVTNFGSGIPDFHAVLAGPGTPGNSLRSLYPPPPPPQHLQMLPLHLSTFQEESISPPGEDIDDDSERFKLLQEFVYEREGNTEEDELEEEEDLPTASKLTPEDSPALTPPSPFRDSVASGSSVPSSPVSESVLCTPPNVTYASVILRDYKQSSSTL", "assay": "Fura-2 Ca2+ imaging in HEK293 cells expressing mGlu1 A59H/A265H", "assay_type": "cell-based", "details": "single-cell values"}, "[2]": {"test_system": "mGlu1 construct not given", "assay": "Fura-2 Ca2+ imaging in HEK293 cells, source data Suppl Fig1, middle group (c9-c17); construct not given", "assay_type": "cell-based, rat", "details": "single-cell values, cells #15-#20; middle group of third block", "source_text": "(§1) Supplement 41467_2022_30828_MOESM6_ESM.zip/Ojima et al_source data_Suppl Fig.xlsx, sheet \"Suppl Fig1\" | column: Glu; NiCl2; CuCl2; ZnCl2; CdCl2; Na2PdCl2; Pd(bpy)"}, "[3]": {"target": "T1, mGlu1 A59H/A265H mutant", "assay": "Fura-2 Ca2+ imaging in HEK293 cells expressing mGlu1 A59H/A265H", "assay_type": "cell-based", "details": "Fig.1e"}, "[4]": {"test_system": "HEK293 cells, vector control", "assay": "Fura-2 Ca2+ imaging in HEK293 cells transfected with control vector (Vec)", "assay_type": "cell-based", "details": "Fig.1e", "source_text": "Supplement 41467_2022_30828_MOESM6_ESM.zip/Ojima et al_source data_Main Figure.xlsx, sheet \"Fig.1e\" | column: Vec"}, "[5]": {"target": "T2, mGlu1 P57H/N264H mutant (Rattus norvegicus, UniProt P23385, N264H/P57H)", "T2 construct": "expressed in transfected cells; host or cells: HEK293", "T2 sequence (P23385 19-1199 P57H/N264H)": "as the sequence (P23385 19-1199 A59H/A265H) above, with P39H, H41A, N246H, H247A counted along it", "assay": "Fura-2 Ca2+ imaging in HEK293 cells expressing mGlu1 P57H/N264H", "assay_type": "cell-based"}, "[6]": {"target": "T3, mGlu1 E60H/N264H mutant (Rattus norvegicus, UniProt P23385, E60H/N264H)", "T3 construct": "expressed in transfected cells; host or cells: HEK293", "T3 sequence (P23385 19-1199 E60H/N264H)": "as the sequence (P23385 19-1199 A59H/A265H) above, with H41A, E42H, N246H, H247A counted along it", "assay": "Fura-2 Ca2+ imaging in HEK293 cells expressing mGlu1 E60H/N264H", "assay_type": "cell-based"}, "[7]": {"target": "T4, mGlu1 A59H/G266H mutant (Rattus norvegicus, UniProt P23385, A59H/G266H)", "T4 construct": "expressed in transfected cells; host or cells: HEK293", "T4 sequence (P23385 19-1199 A59H/G266H)": "as the sequence (P23385 19-1199 A59H/A265H) above, with H247A, G248H counted along it", "assay": "Fura-2 Ca2+ imaging in HEK293 cells expressing mGlu1 A59H/G266H", "assay_type": "cell-based", "details": "Fig.1e"}, "[8]": {"target": "T5, mGlu1 K61H/N264H mutant (Rattus norvegicus, UniProt P23385, K61H/N264H)", "T5 construct": "expressed in transfected cells; host or cells: HEK293", "T5 sequence (P23385 19-1199 K61H/N264H)": "as the sequence (P23385 19-1199 A59H/A265H) above, with H41A, K43H, N246H, H247A counted along it", "assay": "Fura-2 Ca2+ imaging in HEK293 cells expressing mGlu1 K61H/N264H", "assay_type": "cell-based"}, "[9]": {"target": "T6, mGlu1 P58H/N264H mutant (Rattus norvegicus, UniProt P23385, N264H/P58H)", "T6 construct": "expressed in transfected cells; host or cells: HEK293", "T6 sequence (P23385 19-1199 P58H/N264H)": "as the sequence (P23385 19-1199 A59H/A265H) above, with P40H, H41A, N246H, H247A counted along it", "assay": "Fura-2 Ca2+ imaging in HEK293 cells expressing mGlu1 P58H/N264H", "assay_type": "cell-based"}, "[10]": {"target": "T7, mGlu1 A59H/N264H mutant (Rattus norvegicus, UniProt P23385, A59H/N264H)", "T7 construct": "expressed in transfected cells; host or cells: HEK293", "T7 sequence (P23385 19-1199 A59H/N264H)": "as the sequence (P23385 19-1199 A59H/A265H) above, with N246H, H247A counted along it", "assay": "Fura-2 Ca2+ imaging in HEK293 cells expressing mGlu1 A59H/N264H", "assay_type": "cell-based"}, "[11]": {"target": "T8, WT mGlu1 (Rattus norvegicus, UniProt P23385)", "T8 construct": "expressed in transfected cells; host or cells: HEK293", "T8 sequence (P23385 19-1199)": "as the sequence (P23385 19-1199 A59H/A265H) above, with H41A, H247A counted along it", "assay_type": "cell-based"}, "[12]": {"test_system": "mGlu1 construct not given", "assay": "Fura-2 Ca2+ imaging in HEK293 cells, source data Suppl Fig1, right group (c18-c26); construct not given", "assay_type": "cell-based, rat", "details": "single-cell values, cells #15-#20; right group of third block", "source_text": "as §1"}, "[13]": {"target": "T4, mGlu1 A59H/G266H mutant", "assay": "Fura-2 Ca2+ imaging in HEK293 cells expressing mGlu1 A59H/G266H", "assay_type": "cell-based", "details": "single-cell values"}, "[14]": {"test_system": "HEK293 cells, vector control", "assay": "Fura-2 Ca2+ imaging in HEK293 cells transfected with control vector (Vec)", "assay_type": "cell-based", "details": "single-cell values #1-#20"}, "[15]": {"test_system": "mGlu1 construct not given", "assay": "Fura-2 Ca2+ imaging in HEK293 cells, source data Suppl Fig1, left group (c0-c8); construct not given", "assay_type": "cell-based, rat", "details": "single-cell values, cells #15-#20; left group of third block", "source_text": "as §1"}},
  "note": "Several values for one entry are separate records, joined by “and”; a condition that tells them apart may be missing. Identical values can stand only once. Throughout, for Ca2+ response (delta ratio), A59H/G266H: test concentration or dose not given here. Throughout, for Ca2+ response (delta ratio), WT: test concentration or dose not given here. Throughout, for Ca2+ response of individual cells (source data Suppl Fig1), Vec: test concentration or dose not given here. Throughout, for Ca2+ response of individual cells (source data Suppl Fig1), WT: test concentration or dose not given here.",
  "data": [
    {"smiles": "[Cl][Cu][Cl]", "note": "[CuCl2]", "values": [
      {"measurement": "Ca2+ response of individual cells (source data Suppl Fig1), A59H/A265H", "setting": "[1]", "result": "-0.01552 and 0.009746 and -0.01265 and -0.0065 and 0.009708 and -0.002746 and 0.009762 and -0.01072 and 0.004462 and -0.01463 and 0.01478 and 0.0025 and 0.01092 and -0.009138"},
      {"measurement": "Ca2+ response of individual cells (source data, sheet Suppl Fig1)", "setting": "[2]", "result": "-0.002923 and 0.002562 and 0.004815 and -0.0036 and -0.004154 and 0.002577"},
      {"measurement": "Ca2+ response (delta ratio), A59H/A265H", "setting": "[3]", "result": -0.0005365},
      {"measurement": "Ca2+ response (delta ratio), Vec", "setting": "[4]", "result": 0.01757},
      {"measurement": "Ca2+ response (delta ratio), P57H/N264H", "setting": "[5]; Fig.1e", "result": 0.007634},
      {"measurement": "Ca2+ response of individual cells (source data Suppl Fig1), P57H/N264H", "setting": "[5]; single-cell values #1-#20, P57H/N264H", "result": "-0.009615 and 0.002477 and 0.01378 and 0.02434 and 0.0008462 and 0.008 and -0.0007 and 0.008062 and 0.01831 and -0.0008538 and 0.01338 and 0.01485 and 0.01 and 0.001692 and -0.005731 and 0.03126 and 0.0103 and 0.01328 and -0.004977 and 0.003977"},
      {"measurement": "Ca2+ response (delta ratio), E60H/N264H", "setting": "[6]; Fig.1e", "result": -0.0006131},
      {"measurement": "Ca2+ response of individual cells (source data Suppl Fig1), E60H/N264H", "setting": "[6]; single-cell values #1-#20, E60H/N264H", "result": "0.001946 and 0.001985 and -0.004585 and 0.05012 and -0.01047 and -0.007438 and -0.008146 and -0.01882 and 0.02938 and -0.02675 and -0.0009231 and -0.009708 and 0.06405 and 0.006685 and -0.01392 and -0.007992 and -0.007615 and -0.01812 and -0.013 and -0.01895"},
      {"measurement": "Ca2+ response (delta ratio), A59H/G266H", "setting": "[7]", "result": -0.01398},
      {"measurement": "Ca2+ response (delta ratio), K61H/N264H", "setting": "[8]; Fig.1e", "result": -0.008802},
      {"measurement": "Ca2+ response of individual cells (source data Suppl Fig1), K61H/N264H", "setting": "[8]; single-cell values, K61H/N264H", "result": "-0.02337 and 0.01083 and -0.01322 and 0.006669 and -0.02188 and -0.01248 and -0.01492 and -0.01697 and -0.01238 and 0.05283 and -0.01893 and -0.01583 and -0.01651 and -0.01879"},
      {"measurement": "Ca2+ response (delta ratio), P58H/N264H", "setting": "[9]; Fig.1e", "result": -0.01421},
      {"measurement": "Ca2+ response of individual cells (source data Suppl Fig1), P58H/N264H", "setting": "[9]; single-cell values #1-#20, P58H/N264H", "result": "-0.02928 and 0.02135 and -0.1614 and -0.04317 and -0.03766 and -0.009985 and 0.06338 and -0.01091 and -0.1246 and -0.02604 and 0.008315 and -0.1403 and -0.007362 and 0.04025 and -0.04095 and 0.177 and 0.01632 and 0.001515 and 0.03036 and -0.0111"},
      {"measurement": "Ca2+ response (delta ratio), A59H/N264H", "setting": "[10]; Fig.1e", "result": -0.008971},
      {"measurement": "Ca2+ response of individual cells (source data Suppl Fig1), A59H/N264H", "setting": "[10]; single-cell values #1-#20, A59H/N264H", "result": "0.01442 and -0.1061 and -0.004715 and -0.004738 and -0.008577 and -0.007731 and 0.0007462 and -0.01637 and -0.006738 and -0.004831 and 0.04273 and 0.05223 and 0.05741 and -0.09539 and -0.006538 and 0.01191 and -0.02261 and -0.005077 and -0.03944 and -0.03002"},
      {"measurement": "Ca2+ response (delta ratio), WT", "setting": "[11]; Fig.1e", "result": 0.02902},
      {"measurement": "Ca2+ response of individual cells (source data Suppl Fig1), WT", "setting": "[11]; single-cell values #1-#20, WT", "result": "0.02565 and 0.01115 and 0.003838 and 0.01123 and 0.01654 and 0.01648 and -0.004477 and -0.001046 and -0.0009077 and 0.04058 and 0.008923 and 0.1117 and -0.006138 and 0.001246 and 0.02892 and 0.05005 and 0.02387 and -0.0088 and -0.01073 and 0.2624"},
      {"measurement": "Ca2+ response of individual cells (source data, sheet Suppl Fig1)", "setting": "[12]", "result": "-0.007831 and 0.008223 and -0.0022 and 0.006269 and -0.002515 and 0.01038"},
      {"measurement": "Ca2+ response of individual cells (source data Suppl Fig1), A59H/G266H", "setting": "[13]", "result": "-0.005931 and -0.06262 and 0.006338 and -0.05078 and -0.003546 and -0.0521 and 0.002277 and -0.02358 and 0.04298 and -0.0436 and -0.1049 and -0.001831 and 0.0158 and -0.01046"},
      {"measurement": "Ca2+ response of individual cells (source data Suppl Fig1), Vec", "setting": "[14]", "result": "0.02461 and -0.003092 and 0.01753 and 0.02088 and 0.01475 and -0.003385 and 0.07142 and 0.01504 and 0.02807 and 0.04525 and 0.001746 and 0.01458 and 0.01948 and -0.006131 and 0.04009 and 0.01931 and 0.02889 and 0.01229 and -0.005492 and -0.004385"},
      {"measurement": "Ca2+ response of individual cells (source data, sheet Suppl Fig1)", "setting": "[15]", "result": "0.006485 and -0.01132 and -0.01643 and -0.02029 and -0.01602 and -0.0035"}
    ]}
  ]
}
